We go through 2 compounds from US20180353501A1 (Arvinas, Inc., priority 2017, published 2018).

The assay addresses T1, His-p38δ (Homo sapiens, UniProt O15264).
T1 construct: encoding a region spanning amino acids 1-365 was PCR-amplified; made in house; host or cells: E. coli BL21-CodonPlus(DE3)-RIPL
T1 sequence (O15264 1-365): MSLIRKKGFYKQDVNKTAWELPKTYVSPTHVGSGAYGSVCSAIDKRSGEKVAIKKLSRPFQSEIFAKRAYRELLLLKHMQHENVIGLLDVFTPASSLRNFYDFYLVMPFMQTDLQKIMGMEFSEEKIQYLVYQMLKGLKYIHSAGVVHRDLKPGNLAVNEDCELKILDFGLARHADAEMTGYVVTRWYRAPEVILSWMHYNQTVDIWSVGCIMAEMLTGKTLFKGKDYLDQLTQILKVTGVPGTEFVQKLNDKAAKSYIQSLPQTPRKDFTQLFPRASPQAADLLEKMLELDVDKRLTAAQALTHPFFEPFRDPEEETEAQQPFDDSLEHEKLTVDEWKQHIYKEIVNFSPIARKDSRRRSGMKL
Nature of the assay: SPR binary affinity, compound on immobilized His-p38δ. In kind it is binding. The conditions noted are these: for Kd: His-p38δ immobilized, read-out: PROTAC:p38δ Kd. The method, then: FIGS. 16A, 16B, and 16C. SPR curves assessing binary and ternary interactions. […] Equimolar p38δ:PROTAC mixtures were injected onto immobilized GST-VBC and allowed to dissociate overtime. […] See Table 12 for a summary of the binary and ternary affinity and kinetic measurements. […] Next, with the same setup, equimolar p38δ:PROTAC dilutions were successively injected onto immobilized VHL for 60 seconds, prior to monitoring complex dissociation for the remaining 300 seconds. This SPR strategy enabled us to determine effective ternary affinities for a given p38δ:PROTAC:VHL complex and compare the relative affinity change that occurs between VHL:PROTAC when p38δ is present in the mixture. […] This p38δ region was cloned into a pET28a vector containing an N-terminal His6 tag using NheI and BamHI restriction sites. As before, BL21-CodonPlus(DE3)-RIPL E. coli cells (Agilent Technologies) were transformed with pET[…]6-p38delta and were selected in LB medium containing kanamycin (50 μg mL^1), chloramphenicol (15 μg mL^-1), and spectinomycin (50 μg mL^-1) at 37° C. until OD600=0.8. […] Pure fractions of p38δ were pooled, concentrated to 3 mg mL^-1, aliquoted, and flash-frozen before storing at -80° C. SPR experiments were conducted on a Biacore 3000 instrument (GE Healthcare) at room temperature. GST antibody was immobilized through direct amination onto a carboxymethylated dextran surface (CM5) and GST-VBC was captured on the CM5 surface. This prepared surface was equilibrated over three hours in running buffer (10 mM HEPES buffer pH 7.4, 150 mM NaCl, 0.4 mg mL^-1 BSA, 0.005% P20, 2% DMSO). All compounds were prepared in 100% DMSO stock plates with a top concentration of 500 μM in a 3× serial dilution. Exemplary compounds were transferred from the stock plate to the assay plate and diluted into running buffer without DMSO. Equimolar concentration of target protein was added to corresponding compound wells. All exemplary compounds were run as a twelve point-concentration series with a final assay top concentration of 50 μM to measure p38δ:PROTAC and VHL:PROTAC binding and top concentration of 5 μM to measure p38δ:PROTAC:VHL binding. All exemplary compounds were injected for 60 seconds and allowed to dissociate for 300 seconds. Data analysis was performed in Scrubber 2 (BioLogic Software). Blanks from reference flow cell containing immobilized GST-VBC were subtracted to correct for noise and data was solvent-corrected against a standard DMSO curve.

In general, Kd refers to the concentration at which binding is half-saturated. `COc1cc2c(Oc3ccc(NC(=O)C4(C(=O)Nc5ccc(F)cc5)CC4)cc3F)ccnc2cc1OCCOCCOCCOc1cc(-c2scnc2C)ccc1CNC(=O)[C@@H]1C[C@@H](O)CN1C(=O)[C@H](C(C)C)N1Cc2ccccc2C1=O` [compound 46]: the “loss of affinity for p38δ compared to the PTM (foretinib)” value was “about 2 fold” and the Kd came out at 550 nM.
`COc1cc2c(Oc3ccc(NC(=O)C4(C(=O)Nc5ccc(F)cc5)CC4)cc3F)ccnc2cc1OCCCCOCCCCOCC(=O)N[C@H](C(=O)N1C[C@H](O)C[C@H]1C(=O)NCc1ccc(-c2scnc2C)cc1)C(C)(C)C` [compound 50, N-(3-fluoro-4-((7-(4-(4-(2-(((S)-1-((2S,4R)-4-hydroxy-2-((4-(4-methylthiazol-5-yl)benzyl)carbamoyl)pyrrolidin-1-yl)-3,3-dimethyl-1-oxobutan-2-yl)amino)-2-oxoethoxy)butoxy)buto-xy)-6-methoxyquinolin-4-yl)oxy)phenyl)-N-(4-fluorophenyl)cyclopropane-1,1-dicarboxa-mide]: the “loss of affinity for p38δ compared to the PTM (foretinib)” value is “about 2 fold” and the dissociation constant (Kd) was determined as 500 nM.
